Laboratory results: patent US20220243210A1, “ANGIOTENSIN II TYPE 1 RECEPTOR TARGETED OLIGONUCLEOTIDES AND USES THEREOF” (Ionis Pharmaceuticals, Inc., priority 2019, published 2022)
Values belong to the substance of their own block, whether it stands above or below them.

Tests used:
human AGTR1 = target: T1, human AGTR1 (Homo sapiens, UniProt P30556); assay: AGTR1 signaling, IP-One Gq kit (IP1 accumulation), HEK-AGTR1 FAP cells; type: cell-based; settings: 90 minutes
T1 construct: host or cells: HEK293 (HEK-AGTR1 FAP cells)
T1 sequence (P30556 1-359): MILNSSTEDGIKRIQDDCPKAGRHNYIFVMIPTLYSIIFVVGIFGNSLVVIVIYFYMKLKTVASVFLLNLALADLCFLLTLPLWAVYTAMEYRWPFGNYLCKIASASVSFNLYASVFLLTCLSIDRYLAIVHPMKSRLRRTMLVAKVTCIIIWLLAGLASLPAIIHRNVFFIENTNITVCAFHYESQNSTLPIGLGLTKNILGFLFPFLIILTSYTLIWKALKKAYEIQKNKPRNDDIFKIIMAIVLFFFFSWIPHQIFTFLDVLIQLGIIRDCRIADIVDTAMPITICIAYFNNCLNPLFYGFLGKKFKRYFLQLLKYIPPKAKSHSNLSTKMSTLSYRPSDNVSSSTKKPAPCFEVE
Experimental: (§1) Activated AGTR1 couples to the Gαq subunit of heterotrimeric G proteins, which activates the phospholipase C (PLC) and subsequently inositol 1,4,5-trisphosphate (IP3) signaling cascade. AGTR1 signaling was measured using an IP-One Gq kit (cisbio #62IPAPEB). The kit detects the accumulation of inositol monophosphate (IP1), a stable downstream metabolite of IP3 induced by activation of a phospholipase C (PLC) cascade.
An additional control compound, AngII, which consists of the peptide motif […], was also tested. […] AGTR1 activation was measured using the IP-One Gq kit.

human MALAT1 RNA [1] = assay: MALAT1 RNA reduction in HEK-AGTR1 FAP cells, free uptake, 24 hours; type: cell-based; settings: for MALAT (% control): relative to untreated control cells
Experimental: (§2) At the end of the treatment period, total RNA was isolated from the cells and MALAT1 RNA levels were measured by quantitative real-time PC&. […] MALAT1 RNA levels were normalized according to total RNA content, as measured by RIBOGREEN®. Reduction of MALAT1 RNA is presented Table 3 below as percent MALAT1 RNA amount relative to untreated control (UTC) cells. The half maximal inhibitory concentration (IC50) of each modified oligonucleotide was calculated using a non-linear fit [inhibitor] vs. response—variable slope (four parameters) formula in GraphPad Prism 7.01.

mouse MALAT RNA = assay: MALAT RNA reduction in vivo, C57BL6/J mice, multiple dose; settings: for ED50: IV day 0, 4, 8
Experimental: Compound Nos. 556089, 1229761, and 1229762 are described in Table 1 above. Compound Nos. 556089, 1229761, and 1229762 were tested in C57BL6/J mice. The mice were divided into groups of 4 mice each. […] The mice were then sacrificed on day 12. Heart, adipose, adrenal, kidney, and liver tissue was then collected and homogenized and RNA analysis was performed. A group of 4 mice received PBS as a negative control.
RNA was extracted from heart, adipose, adrenal, kidney, and liver tissue for real-time PCR analysis of measurement of RNA expression of MALAT using primer probe set mMALAT1 #2 (forward sequence […] (SEQ ID NO: 5); reverse sequence […] (SEQ ID NO: 6); probe sequence […] (SEQ ID NO: 7)). Results are presented as percent change of RNA, relative to PBS control, normalized to mouse GAPDH.

HEK-APLNR FAP cells = assay: IP1 accumulation negative control in HEK-APLNR FAP cells (do not express AGTR1); type: cell-based, human; settings: 24 hours
Experimental: as §1
As a negative control, Compound Nos. 556089 and 1229761 were also tested in HEK293 cells expressing FAP tagged human Apelin receptor (HEK-APLNR FAP cells from Spectragenetics). […] HEK-APLNR FAP cells were cultured with Compound Nos. 556089 and 1229761, described herein above, at the concentrations detailed in Table 2 for 24 hours.

human MALAT1 RNA [2] = assay: MALAT1 RNA reduction in HEK-AGTR1 FAP cells, free uptake, 48 hours; type: cell-based; settings: for MALAT (% control): relative to untreated control cells
Experimental: as §2, with “PCR.” for “PC&.”, “Reduction of MALAT1 RNA is presented Table 3 below as percent MALAT1 RNA amount relative to untreated control (UTC) cells.” left out, “response-variable” for “response—variable”, “(three” for “(four”

IP1 accumulation (human AGTR1; 0.0256 nM): 1.183 µM
IP1 accumulation (human AGTR1; 0.128 nM): 2.569 µM
IP1 accumulation (human AGTR1; 0.64 nM): 1.71 µM
IP1 accumulation (human AGTR1; 3.2 nM): 4.465 µM
IP1 accumulation (human AGTR1; 16 nM): 8.913 µM
IP1 accumulation (human AGTR1; 80 nM): 15.383 µM
IP1 accumulation (human AGTR1; 400 nM): 13.89 µM
IP1 accumulation (human AGTR1; 2000 nM): 14.825 µM
Substance: AngII

Substance: Compound No. 1229761: Angiotensin II peptide [N6-(2-azidoacetyl)-K]DRVYIHPF conjugated via linker to 5′-end of MALAT1 modified oligonucleotide TCAGCATTCTAATAGCAGC
MALAT (% control) (human MALAT1 RNA [1]; 12 nM, 24 hours): 126 % control
MALAT (% control) (human MALAT1 RNA [1]; 111 nM, 24 hours): 76 % control
MALAT (% control) (human MALAT1 RNA [1]; 333 nM, 24 hours): 63 % control
MALAT (% control) (human MALAT1 RNA [1]; 1000 nM, 24 hours): 67 % control
MALAT (% control) (human MALAT1 RNA [1]; 3000 nM, 24 hours): 36 % control
MALAT (% control) (human MALAT1 RNA [1]; 9000 nM, 24 hours): 33 % control
IC50 (human MALAT1 RNA [1]; MALAT1 RNA, 24 hours, four parameter fit): 182 nM
reduction of target RNA in words (human MALAT1 RNA [1]; compared to parent unconjugated Compound No. 556089, 24 hours): significantly greater reduction of target RNA
MALAT-1 RNA (% control) (mouse MALAT RNA; Adipose, 0.4 μmol/kg IV day 0, 4, 8, sacrifice day 12, relative to PBS): 66.2 % control
MALAT-1 RNA (% control) (mouse MALAT RNA; Adipose, 1.2 μmol/kg IV day 0, 4, 8, sacrifice day 12, relative to PBS): 33.0 % control
MALAT-1 RNA (% control) (mouse MALAT RNA; Adipose, 3.6 μmol/kg IV day 0, 4, 8, sacrifice day 12, relative to PBS): 15.5 % control
ED50 (mouse MALAT RNA; Adipose): 0.1 µmol/kg
MALAT-1 RNA (% control) (mouse MALAT RNA; Adrenal, 0.4 μmol/kg IV day 0, 4, 8, sacrifice day 12, relative to PBS): 90.3 % control
MALAT-1 RNA (% control) (mouse MALAT RNA; Adrenal, 1.2 μmol/kg IV day 0, 4, 8, sacrifice day 12, relative to PBS): 59.7 % control
MALAT-1 RNA (% control) (mouse MALAT RNA; Adrenal, 3.6 μmol/kg IV day 0, 4, 8, sacrifice day 12, relative to PBS): 41.5 % control
ED50 (mouse MALAT RNA; Adrenal): 1.091 µmol/kg
MALAT-1 RNA (% control) (mouse MALAT RNA; Heart, 0.4 μmol/kg IV day 0, 4, 8, sacrifice day 12, relative to PBS): 82.3 % control
MALAT-1 RNA (% control) (mouse MALAT RNA; Heart, 1.2 μmol/kg IV day 0, 4, 8, sacrifice day 12, relative to PBS): 68.7 % control
MALAT-1 RNA (% control) (mouse MALAT RNA; Heart, 3.6 μmol/kg IV day 0, 4, 8, sacrifice day 12, relative to PBS): 31.7 % control
ED50 (mouse MALAT RNA; Heart): 2.686 µmol/kg
MALAT-1 RNA (% control) (mouse MALAT RNA; Kidney, 0.4 μmol/kg IV day 0, 4, 8, sacrifice day 12, relative to PBS): 53.8 % control
MALAT-1 RNA (% control) (mouse MALAT RNA; Kidney, 1.2 μmol/kg IV day 0, 4, 8, sacrifice day 12, relative to PBS): 39.6 % control
MALAT-1 RNA (% control) (mouse MALAT RNA; Kidney, 3.6 μmol/kg IV day 0, 4, 8, sacrifice day 12, relative to PBS): 21.4 % control
ED50 (mouse MALAT RNA; Kidney): 1.88 µmol/kg
MALAT-1 RNA (% control) (mouse MALAT RNA; Liver, 0.4 μmol/kg IV day 0, 4, 8, sacrifice day 12, relative to PBS): 34.7 % control
MALAT-1 RNA (% control) (mouse MALAT RNA; Liver, 1.2 μmol/kg IV day 0, 4, 8, sacrifice day 12, relative to PBS): 12 % control
MALAT-1 RNA (% control) (mouse MALAT RNA; Liver, 3.6 μmol/kg IV day 0, 4, 8, sacrifice day 12, relative to PBS): 5.7 % control
ED50 (mouse MALAT RNA; Liver): 0.063 µmol/kg
IP1 accumulation (HEK-APLNR FAP cells; 0.0256 nM): 590 nM
IP1 accumulation (HEK-APLNR FAP cells; 0.128 nM): 477 nM
IP1 accumulation (HEK-APLNR FAP cells; 0.64 nM): 564 nM
IP1 accumulation (HEK-APLNR FAP cells; 3.2 nM): 510 nM
IP1 accumulation (HEK-APLNR FAP cells; 16 nM): 505 nM
IP1 accumulation (HEK-APLNR FAP cells; 80 nM): 492 nM
IP1 accumulation (HEK-APLNR FAP cells; 400 nM): 425 nM
IP1 accumulation (HEK-APLNR FAP cells; 2000 nM): 472 nM
MALAT (% control) (human MALAT1 RNA [2]; 2.7 nM, 48 hours): 94 % control
MALAT (% control) (human MALAT1 RNA [2]; 8.2 nM, 48 hours): 98 % control
MALAT (% control) (human MALAT1 RNA [2]; 24.7 nM, 48 hours): 92 % control
MALAT (% control) (human MALAT1 RNA [2]; 74.1 nM, 48 hours): 85 % control
MALAT (% control) (human MALAT1 RNA [2]; 222.2 nM, 48 hours): 53 % control
MALAT (% control) (human MALAT1 RNA [2]; 666.7 nM, 48 hours): 26 % control
MALAT (% control) (human MALAT1 RNA [2]; 2000 nM, 48 hours): 18 % control
MALAT (% control) (human MALAT1 RNA [2]; 6000 nM, 48 hours): 16 % control
MALAT (% control) (human MALAT1 RNA [2]; .10 nM, 48 hours): 85 % control
MALAT (% control) (human MALAT1 RNA [2]; .3 nM, 48 hours): 99 % control
MALAT (% control) (human MALAT1 RNA [2]; .9 nM, 48 hours): 91 % control
IC50 (human MALAT1 RNA [2]; MALAT1 RNA, 48 hours, three parameter fit): 290 nM
reduction of target RNA in words (human MALAT1 RNA [2]; compared to parent unconjugated Compound No. 556089, 48 hours): significantly greater reduction of target RNA
